Assay results from patent US20040002441A1, “Recombination modulators and methods for producing and using the same” (priority 2000, published 2004).
Where no end group is shown, it is not given here.

Columns and labels:
[1] = target: T1, bacteriophage λ Integrase (Int) (Escherichia phage lambda, UniProt P03700); assay: Int-mediated straight-L recombination; type: biochemical
T1 sequence (P03700 1-356): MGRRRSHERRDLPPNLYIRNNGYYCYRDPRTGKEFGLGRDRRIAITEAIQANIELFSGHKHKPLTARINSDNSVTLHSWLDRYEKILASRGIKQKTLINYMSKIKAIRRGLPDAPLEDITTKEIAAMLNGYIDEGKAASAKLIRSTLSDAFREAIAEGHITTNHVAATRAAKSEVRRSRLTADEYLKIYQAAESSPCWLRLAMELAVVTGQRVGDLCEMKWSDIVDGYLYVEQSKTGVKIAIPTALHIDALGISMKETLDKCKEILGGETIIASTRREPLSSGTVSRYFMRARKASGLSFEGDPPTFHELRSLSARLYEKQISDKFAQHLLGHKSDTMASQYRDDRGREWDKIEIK
Description: (§1) FIG. 11 depicts effect of peptide KWWCRW (diamonds) and peptide KWWWRW (squares) on the remaining 3 pathways of Int-mediated recombination. Recombination extents were normalized to the amount of recombination in untreated reactions and expressed as relative % recombination. A. Effect of peptides on integrative recombination (IC50 values for both peptides are roughly 0.2 μM). Reactions were assembled as for bent-L recombination except that they were incubated at room temperature, the substrates were a supercoiled plasmid (4.8 kb) carrying attP and ^32P labeled 91 bp PCR fragment encoding attB. […] The recombination substrates were PCR fragments encoding the attL (^32P-labeled) and attR sites. Reactions contained 50 NM Xis in addition to Int and IHF (37 nM), as well as 100 ng salmon sperm DNA, and were incubated at room temperature. C. Effect of peptides on straight-L recombination (IC50 values for peptide KWWCRW is 0.06 μM, while for peptide KWWWRW is slightly over 0.1 μM). Reactions were assembled as for bent-L recombination except that they were incubated at room temperature; the substrates were two PCR fragments, one of which was ^32P-labeled and 187 bp, the other of which was unlabeled and 496 bp.
(§2) Int Assays. […] Dried gels were visualized and quantitated using a Molecular Dynamics PhosphorImager.

[2] = target: T2, bacteriophage λ Integrase (Int) (Escherichia phage lambda, UniProt P03700); assay: Int-mediated integrative recombination; type: biochemical; details: IC50, inhibition of integrative recombination, integration pathway
T2 sequence (P03700 1-356): T1 sequence (P03700 1-356)
T2 sequence (P0A6X7 1-99 partner): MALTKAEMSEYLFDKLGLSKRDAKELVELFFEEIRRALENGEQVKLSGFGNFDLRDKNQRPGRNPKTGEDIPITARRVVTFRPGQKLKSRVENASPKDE
T2 sequence (P0A6Y1 1-94 partner): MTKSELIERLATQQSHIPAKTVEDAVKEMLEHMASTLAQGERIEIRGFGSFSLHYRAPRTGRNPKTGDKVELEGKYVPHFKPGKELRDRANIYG
Description: as §1, §2

[3] = test system: T4 topoisomerase (type II); assay: T4 topoisomerase DNA relaxation assay; type: biochemical, bacteriophage T4; details: for effect on DNA relaxation: 100 μM peptide
Description: T4 topoisomerase assays. Reactions were performed as described (Huff and Kreuzer, 1990) using 30 or 60 ng of enzyme and 200 ng of supercoiled pUC19 per reaction. The products were electrophoresed on 0.8% agarose gels at 40V in 0.5× Tris borate EDTA buffer for about 6 hours. The gel was then stained with EtBr for viewing.

[4] = target: restriction enzymes with unique sites in pUC19; assay: Restriction enzyme assays, all enzymes tested; type: biochemical
Description: Restriction enzyme assays. Restriction digests were performed as specified and the products were separated on 0.8% agarose gels electrophoresed at 80-90V in 1× Tris borate EDTA buffer. Gels were photographed, scanned and quantitated using NIH Image v.1.55, as recommended in the instruction manual.

vaccinia topoisomerase = target: T3, vaccinia topoisomerase (Vaccinia virus, UniProt P68698); assay: Gel shift of noncovalent topoisomerase-DNA complex (60-bp duplex with CCCTT site); type: binding; details: 0.72 to 1.8 μM peptide
T3 construct: made in house; host or cells: Escherichia coli BL21 infected with bacteriophage λCE6
Text: To test whether the peptide interferes with the noncovalent association of topoisomerase with the DNA, we assayed the effects of the peptides on the binding of vaccinia topoisomerase to a radiolabeled 60-bp duplex DNA containing a single central CCCTT recognition site. In contrast to the suicide substrate, for which all bound enzymes are trapped in the covalent state, only about 20% of the fully double-stranded DNA molecules that are bound will be linked covalently to the protein (Wittschieben and Shuman, 1997).

[5] = target: bacteriophage λ Integrase (Int) (Escherichia phage lambda, UniProt P03700); assay: Resolution of isolated excision Holliday junctions by Int, IHF and Xis; type: biochemical; details: peptide 100 μM
Description: FIG. 18 depicts effect of peptide WKHYNY on DNA cleavage. A. Time course of resolution of excision HJs. HJs were isolated, and Int, IHF, and Xis were added in the presence or absence of peptide 52 (100 μM) and stopped at various timepoints (1, 5, 15, 30, 60, and 90 min). Absence of peptide, closed circles; presence of peptide, open squares. B. The extent of strand cleavage of attL. An attL site containing a phosphorothiolate modification at the point of top strand cleavage (attLS) was incubated with Int, IHF, and Xis, in the presence of attR and in the presence or absence of peptide WKHYNY. Absence of peptide, open squares; presence of peptides, closed diamonds.
Holliday junctions can be resolved either in the “forward” direction to form recombinant products or in the “reverse” direction to re-form substrates. Synthetic HJs representing intermediates in the unidirectional reactions are preferentially resolved in the direction of products (Hsu and Landy, 1984; Franz and Landy, 1990, 1995). We wanted to determine whether HJs isolated in the presence of peptide behave similarly to the synthetic HJs. In addition, we wanted to analyze the processing of bent-L HJs. Recombination reactions were assembled in the presence of peptide WKHYNY, and protein-free HJs were isolated from SDS-containing gels, eluted, and precipitated. […]

Substance | IC50 [1] | IC50 [2] | effect on DNA relaxation [3] | IC50 ([3]; supercoiled pUC19) | IC50 [4] | effect on formation of the noncovalent topoisomerase-DNA complex (vaccinia topoisomerase) | effect on rate of resolution of gel-isolated excision HJs [5]
KWWWRW-NH2 [Peptide 56, KWWWRW] | > 100 nM | ~200 nM | – | – | – | – | –
KWWCRW-NH2 [Peptide 59, KWWCRW] | 60 nM | 300 nM | blocked it completely | 40000 nM | ~40000 nM | did not inhibit | –
WKHYNY-NH2 [Peptide 52, WKHYNY] | – | – | no effect | – | – | – | slowed the rate of cleavage
